Among the data in publication PMC5270475, “Structural Characterization and Ligand/Inhibitor Identification Provide Functional Insights into the Mycobacterium tuberculosis Cytochrome P450 CYP126A1” (The Journal of Biological Chemistry, 2016) are Kd values, retold here.

The structures appear in SMILES notation.

The target of this experiment is T1, CYP126A1 (Mycobacterium tuberculosis, UniProt P9WPN9).
T1 construct: gene cyp126
T1 sequence (P9WPN9 whole entry): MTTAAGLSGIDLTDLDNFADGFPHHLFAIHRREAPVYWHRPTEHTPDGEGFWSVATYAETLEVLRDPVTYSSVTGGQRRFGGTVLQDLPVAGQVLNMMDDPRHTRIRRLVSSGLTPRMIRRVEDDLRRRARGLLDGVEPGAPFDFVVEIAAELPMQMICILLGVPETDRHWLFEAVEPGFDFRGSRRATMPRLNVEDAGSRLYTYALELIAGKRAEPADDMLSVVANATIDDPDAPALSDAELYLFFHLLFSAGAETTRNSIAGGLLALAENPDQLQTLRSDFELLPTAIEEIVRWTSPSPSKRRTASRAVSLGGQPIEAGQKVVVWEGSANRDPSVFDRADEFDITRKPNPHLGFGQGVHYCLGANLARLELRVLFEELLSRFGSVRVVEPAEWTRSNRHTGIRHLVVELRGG
The experiment in a line: UV-visible absorbance titration (heme Soret shift). It is filed as binding. The note with it: read-out: Kd.
The term Kd denotes the constant that tells how readily two partners part at equilibrium. Consider `COc1ccc(-c2noc(CN(C(=O)Cc3ccc([N+](=O)[O-])cc3)C(C)C)n2)cc1` [compound 1, N-isopropyl-N-((3-(4-methoxyphenyl)-1,2,4-oxadiazol-5-yl)methyl)-2-(4-nitrophenyl)acetamide], for which the dissociation constant Kd is 18.3 ± 1.3 µM.

For the compound `O=C1CCCC2Oc3c(cc(NS(=O)(=O)c4ccc([N+](=O)[O-])cc4)c4ccccc34)C12` (stereo not drawn) [compound 2, Compound 2], the Kd came out at 2.85 ± 0.15 µM.

For the compound `Cc1ccc(NC(=O)c2cccc3nc4ccccc4nc23)cc1` [compound 3, Compound 3], the Kd is 56.1 ± 2.2 µM.

Regarding `O=C1CC(N2CCN(Cc3ccc4c(c3)OCO4)CC2)C(=O)N1Cc1ccc(Cl)cc1` (stereo not drawn) [compound 4, 3-(4-(benzo[d][1,3]dioxol-5-ylmethyl)piperazin-1-yl)-1-(4-chlorobenzyl)pyrrolidine-2,5-dione], the equilibrium dissociation constant (Kd) stood at 65.2 ± 6.6 µM.

Take `Cc1cccc(CSc2ncc(Cl)c(C(=O)Nc3nnc(C)s3)n2)c1` [compound 5, Compound 5]: the Kd came out at 6.15 ± 0.31 µM.

For the compound `O=C(Nc1nc2ccc(F)cc2s1)c1nc(SCc2ccccc2F)ncc1Cl` [compound 6, Compound 6], the Kd is 25.3 ± 0.5 µM.
